This passage reports IC50 results from BindingDB's records for doi:10.1016/j.bmcl.2007.06.058 (Mahidol University, 2007).

The nature of the assay: Inhibition of rhFGF2-induced cellular proliferation of HUVEC.

The structures appear in SMILES notation.

As for `Cc1[nH]c(/C=C2\C(=O)Nc3cc(-c4ccccc4)ccc32)c(C)c1CCC(=O)O`, the IC50 was > 50 µM. In turn, `COc1cccc(-c2ccc3c(c2)NC(=O)/C3=C\c2[nH]c(C)c(CCC(=O)O)c2C)c1` [3-(5-{[(3Z)-6-(3-methoxyphenyl)-2-oxo-2,3-dihydro-1H-indol-3-ylidene]methyl}-2,4-dimethyl-1H-pyrrol-3-yl)propanoic acid] showed an IC50 of 17.9 µM. The same measure for `COc1cc(OC)cc(-c2ccc3c(c2)NC(=O)/C3=C\c2[nH]c(C)c(CCC(=O)O)c2C)c1` [(Z)-3-(5-((6-(3,5-dimethoxyphenyl)-2-oxoindolin-3-ylidene)methyl)-2,4-dimethyl-1H-pyrrol-3-yl)propanoic acid]: 18.2 µM.
